One experiment deals with T1, ACE (Rattus norvegicus, UniProt P47820).
T1 construct: by the ACE contained in the rat serum; from tissue; host or cells: rat serum
T1 sequence (P47820 36-1238 limits assumed): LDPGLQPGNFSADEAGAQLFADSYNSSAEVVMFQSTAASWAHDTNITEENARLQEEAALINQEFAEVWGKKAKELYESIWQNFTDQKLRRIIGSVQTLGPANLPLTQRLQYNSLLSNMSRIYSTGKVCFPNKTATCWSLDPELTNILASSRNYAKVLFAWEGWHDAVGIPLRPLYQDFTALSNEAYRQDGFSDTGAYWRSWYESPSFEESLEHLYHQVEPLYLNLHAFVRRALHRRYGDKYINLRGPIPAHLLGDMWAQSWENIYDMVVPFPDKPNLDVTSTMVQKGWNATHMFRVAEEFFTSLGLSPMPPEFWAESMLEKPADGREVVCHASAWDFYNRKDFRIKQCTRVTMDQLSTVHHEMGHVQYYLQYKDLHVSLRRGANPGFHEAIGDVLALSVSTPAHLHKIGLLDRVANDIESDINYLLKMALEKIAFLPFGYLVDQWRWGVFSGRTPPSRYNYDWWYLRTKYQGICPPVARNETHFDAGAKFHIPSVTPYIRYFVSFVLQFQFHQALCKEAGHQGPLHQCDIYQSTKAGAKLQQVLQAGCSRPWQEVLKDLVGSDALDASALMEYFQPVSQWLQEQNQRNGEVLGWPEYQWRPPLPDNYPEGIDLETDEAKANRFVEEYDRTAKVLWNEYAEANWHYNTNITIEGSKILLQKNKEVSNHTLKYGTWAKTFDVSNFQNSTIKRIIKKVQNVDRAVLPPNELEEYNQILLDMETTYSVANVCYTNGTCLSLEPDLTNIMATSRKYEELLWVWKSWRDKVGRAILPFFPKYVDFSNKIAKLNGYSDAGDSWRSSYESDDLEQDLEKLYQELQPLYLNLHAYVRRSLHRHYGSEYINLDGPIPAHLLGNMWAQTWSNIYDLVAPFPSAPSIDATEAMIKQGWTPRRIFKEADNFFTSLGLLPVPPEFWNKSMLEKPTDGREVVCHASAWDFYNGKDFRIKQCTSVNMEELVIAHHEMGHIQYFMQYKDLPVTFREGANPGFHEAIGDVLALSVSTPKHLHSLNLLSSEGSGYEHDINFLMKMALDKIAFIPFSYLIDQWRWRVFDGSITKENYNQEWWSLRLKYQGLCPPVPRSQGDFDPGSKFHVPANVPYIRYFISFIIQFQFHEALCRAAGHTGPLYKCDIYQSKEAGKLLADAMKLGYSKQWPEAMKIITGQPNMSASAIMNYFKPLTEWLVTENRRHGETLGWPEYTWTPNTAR
Briefly: ACE inhibition: hydrolysis of the ippuril-glycil-glycine artificial substrate by the ACE contained in rat serum. Format: biochemical. The source says: The IC50 values have been calculated by the regression analysis of the linear part of the log dose/percent inhibition curve.

Experiment [1] has as its system blood pressure increases induced by angiotensin I. Briefly: Antihypertensive activity i.v. in the anaesthetized ganglion-blocked rat (inhibition of blood pressure increases induced by repeated i.v. injections of angiotensin I). Format: in vivo. The procedure:
Dose-dependent antihypertensive activity of selected compounds was calculated after intravenous administration to the anaesthetized ganglion-blocked rat. […] Half-lives (t1/2) of the antihypertensive action were also calculated and reported.

Experiment [2] has as its system pressure answer to angiotensin II. The experiment in a line: Influence on the pressure answer to angiotensin II. Format: in vivo. As to conditions: up to the dose of 1 mg kg i.v.

Structures are written as SMILES.

The term IC50 denotes the midpoint of a concentration-inhibition curve. Broadly, the ED50 is the dose that gives a 50% effect, or the effect in half of the subjects. High values mean a need for a large dose, low ones an effect at a small dose.

In turn, `O=C(NO)C(Cc1ccccc1)NC(=O)[C@H]1CCCC[C@H]1C(=O)O` (relative stereo) [Example 18, Cis-2[[N-[1-benzyl-2-(hydroxyamino)-2-oxoethyl]amino]carbonyl]-cyclohexane carboxylic acid] gave a half-inhibitory concentration (IC50) at ACE of 400 nM. This lies in the sub-micromolar range.

Compound `CCN(CC(=O)NO)C(=O)[C@H]1CCCC[C@H]1C(=O)O` (relative stereo) [Example 26, Cis-2[[N-[2-(hydroxyamino)-2-oxoethyl]-N-ethylamino]carbonyl]cyclohexane-carboxylic acid] showed a half-maximal inhibitory concentration (IC50) against ACE of 25 nM.

As for `CN(CC(=O)NO)C(=O)[C@@H]1CCCC[C@H]1C(=O)O` (relative stereo) [Example 21, Trans-2-[[N-[2-(hydroxyamino)-2-oxoethyl]-N-methylamino]carbonyl]-cyclohexanecarboxylic acid], the IC50 against ACE turned out to be 20 nM. Moreover, the “Antihypertensive activity t1/2 (half-life of the antihypertensive action)” value in experiment [1] came to 15 min.

In the case of `CN(CC(=O)NO)C(=O)[C@@H]1CCCC[C@@H]1C(=O)O` [Example 9, Cis-(1S,2R)-2[[N-[2-(hydroxyamino)-2-oxoethyl]-N-methylamino]carbonyl]-cyclohexanecarboxylic acid], the IC50 against ACE came to 3.5 nM. This lies in the single-digit nanomolar range.

The compound `CN(C(=O)[C@H]1CCCC[C@H]1C(=O)O)C(Cc1ccccc1)C(=O)NO` (relative stereo) [Example 29, Cis-2[[N-[1-benzyl-2-(hydroxyamino)-2-oxoethyl]-N-methylamino]carbonyl]-cyclohexanecarboxylic acid] gave an IC50 at ACE of 30 nM. This IC50 lies about 8.6-fold higher than the previous one.

`O=C(NO)C(CCc1ccccc1)NC(=O)[C@H]1CCCC[C@H]1C(=O)O` (relative stereo) [Example 19, Cis-2[[N-[1-(2-phenylethyl)-2-(hydroxyamino)-2-oxoethyl]amino]carbonyl]cyclohexanecarboxylic acid] showed an IC50 against ACE of 28000 nM. Compared with the last compound, the IC50 is about 930-fold higher.

As for `CCN(CC(=O)NO)C(=O)[C@@H]1CCCC[C@H]1C(=O)O` (relative stereo) [Example 2, Trans-2[[N-[2-(hydroxyamino)-2-oxoethyl]-N-ethylamino]carbonyl]- -cyclohexanecarboxylic acid], the IC50 against ACE was determined as 8 nM. Further, the “Antihypertensive activity t1/2 (half-life of the antihypertensive action)” value in experiment [1] turned out to be 14 min.

For `CN(CC(=O)NO)C(=O)[C@@H]1CCC[C@H]1C(=O)O` (relative stereo) [Example 6, Trans-2[[N-[2-(hydroxyamino)-2-oxoethyl]-N-methylamino]carbonyl]cyclopentanecarboxylic acid], 730 nM corresponded to half-maximal inhibition on ACE (IC50). This counts as sub-micromolar.

Regarding `O=C(CNC(=O)[C@H]1CCCC[C@H]1C(=O)O)NO` (relative stereo) [Example 1], it took 1600 nM to reach half-maximal inhibition at ACE (IC50).

As to `CC(=O)ON(C(C)=O)C(=O)CN(C)C(=O)[C@H]1CCCC[C@H]1C(=O)O` (relative stereo) [Example 14, Cis-2-[[N-[2-(N'-acetoxy-N'-acetylamino)-2-oxoethyl]-N-methyl-amino]carbonyl]cyclohexanecarboxylic acid], the IC50 on ACE worked out at 280 nM. Moreover, in experiment [1] (iv, 1 min, angiotensin I-induced pressure increase, at time of maximum effect (1 min)), it took a dose of 1.5 mg/kg to reach the 50% effect level (ED50).

In turn, `CN(C(=O)[C@H]1CCCC[C@H]1C(=O)O)C(CCc1ccccc1)C(=O)NO` (stereo partly drawn) [Example 8, Cis-2[[N-[1-(2-phenylethyl)-2-(hydrxyamino)-2-oxoethyl]-N-methylamino]carbonyl]-cyclohexanecarboxylic acid] yielded an IC50 on ACE of 62 nM. That is a double-digit nanomolar value.

On ACE, `CN(C(=O)[C@@H]1CCCC[C@H]1C(=O)O)C(Cc1ccccc1)C(=O)NO` (relative stereo) [Example 30, Trans-2[[N-[1-benzyl-2-(hydroxyamino)-2-oxoethyl]-N-methylamino]carbonyl]-cyclohexanecarboxylic acid] gave an IC50 of 30 nM.

Consider `CN(C(=O)[C@H]1CCCC[C@H]1C(=O)O)C(CCCc1ccccc1)C(=O)NO` (relative stereo) [Example 32, Cis-2[[N-[1-(3-phenylpropyl)-2-(hydroxyamino)-2-oxoethyl]-N-methylamino]carbonyl]-cyclohexanecarboxylic acid], for which 135 nM corresponded to half-maximal inhibition at ACE (IC50).

For `CCN(CC(=O)NO)C(=O)[C@@H]1CCCC[C@H]1C(=O)O` [Example 7, trans-(1R,2R)-2[[N-[2-(hydroxyamino)-2-oxoethyl]N-ethylamino]carbonyl]-cyclohexanecarboxylic acid], at ACE, the concentration for half-maximal inhibition (IC50) was 7.6 nM.

On to `O=C(NO)C(CNC(=O)[C@H]1CCCC[C@H]1C(=O)O)Cc1ccccc1` (stereo partly shown) [Example 3], for which half-maximal inhibition at ACE (IC50) required 3500 nM.

`CN(CC(=O)NO)C(=O)[C@H]1CCCC[C@H]1C(=O)O` (relative stereo) [Example 4, cis-2[[N-[2-(hydroxyamino)-2-oxoethyl]-N-methylamino]carbonyl]-cyclohexanecarboxylic acid] had an IC50 against ACE of 6 nM. Besides, the “influence on the pressure answer to angiotensin II” value in experiment [2] is given as “has not influenced”. Also, the “Antihypertensive activity t1/2 (half-life of the antihypertensive action)” value in experiment [1] was found to be 15 min.

The compound `O=C(NO)C(CCCc1ccccc1)NC(=O)[C@H]1CCCC[C@H]1C(=O)O` (relative stereo) [Example 20, Cis-2[[N-[1-(3-phenylpropyl)-2-(hydroxyamino)-2-oxoethyl]amino]carbonyl]-cyclohexanecarboxylic acid] gave an IC50 against ACE of 10000 nM.

For the origin of these results see patent publication US5095137A, “Amides of cyclomethylen-1,2-bicarboxylic acids having therapeutical activity” (Laboratori Guidotti SpA, priority 1988, dated 1992).
